We go through one compound from PMC9182086, “Identification of New Non-BBB Permeable Tryptophan Hydroxylase Inhibitors for Treating Obesity and Fatty Liver Disease” (Molecules, 2022).

Series [1] can be described thus: Blood brain barrier PK: plasma and brain levels after iv dosing. It counts as in vivo, male SD rats. Conditions: male rats, 5 mg/kg iv; for BBB penetration: brain level: BQL = below the quantification limit. The procedure: The biodistribution study in plasma and brain tissue was performed using eight-week-old male SD rats (Orient Bio Inc., Seongnam, Korea). Dosing vehicles were composed of DMSO, PEG400, and deionized water (5:40:55, v/v/v). 18i compound was administrated at a dose of 5 mg/kg via intravenous (I.V.). […] Brain tissues were rinsed with saline and four volumes of acetronitrile containing disopyramide were added as an internal standard for LC-MS/MS analysis. The brain samples were homogenized using a sonicator (IKA Labortechnik T10 basic ULTRA-TURRAX, Staufen, Germany) for 10 s on the ice. The plasma samples were added to nine volumes of acetonitrile and vortexed for 5 min. The samples were centrifuged (15,000 RPM, 4 °C, 10 min). The supernatant was collected and analyzed by an LC-MS/MS system.
The LC-MS/MS analysis was performed on an Agilent 1200 series (Agilent Technologies, Santa Clara, CA, USA) with an API 4000 linear ion trap triple quadruple mass spectrometer (AB Sciex, CA, USA). The chromatographic separation of the drug was carried out using a kinetex column (100 × 2.1 mm, 3 μm, Phenomenex, CA USA) with a SecurityGuard C18 guard column (4 mm × 2.0 mm i.d., Phenomenex). The flow rate was 300 µL/min with a mobile phase consisting of 0.1% formic acid in water (eluent A) and 0.1% formic acid in acetonitrile (eluent B) by linear gradient condition as follows: starting with 0 to 0.3 min, B: 5%; 0.3 to 2.5 min, B: 5 → 95%; 2.5 to 2.9 min, B: 95%; 2.9 to 3.0 min, B: 95 → 5%, and then re-equilibrated to initial conditions until 3 min. The total run time was 6 min and the injection volume of 5 μL.

The target of series [2] is T1, CYP2C19 (Homo sapiens, UniProt P33261).
T1 construct: purchased Promega Corp. V9880
Nature of the series: CYP inhibition assay (P450-Glo) CYP2C19. Conditions: P450-Glo CYP2C19 Screening System (CYP enzyme), read-out: CYP inhibition 2C19. It counts as in vitro ADME. The source says:
(§1) Five major screening systems: P450-Glo CYP1A2 Screening System (Catalog# V9770), P450-Glo CYP2C9 Screening System (Catalog# V9790), P450-Glo CYP2C19 (Catalog# V9880), P450-Glo CYP 2D6 (Catalog# V9890), and P450-Glo CYP3A4 (Catalog# V9920) were attained from Promega Corp. (Madison, WI). α-naphthoflavone, sulfaphenazole, amitriptyline, quinidine, and ketoconazole were identified as positive control inhibitors for CYP1A2, CYP2C9, CYP2C19, CYP2D6, and CYP3A4, respectively. The CYP enzyme and substrate were combined in a potassium phosphate (KPO4) buffer and the reaction is initiated by adding an NADPH regenerating system. The volume of the mixture (12.5 μL in a 96-well plate) was combined with an equal volume of test compound solution and positive control inhibitor (12.5 μL added to make the volume 25 μL). The reaction of the NADPH regeneration system was initiated by adding a 2× concentration of NADPH solution. Then an equal volume of luciferin detection reagent was added. The plates were incubated at room temperature for 20 min and the luminescence signal was measured by a microplate reader device.

The target in series [3] is T2, CYP3A4 (Homo sapiens, UniProt P08684).
T2 construct: purchased Promega Corp. V9920
Nature of the series: CYP inhibition assay (P450-Glo) CYP3A4. It counts as in vitro ADME. Conditions: P450-Glo CYP3A4 Screening System (CYP enzyme), read-out: CYP inhibition 3A4.
From the text: as §1

In series [4] the target is T3, CYP1A2 (Homo sapiens, UniProt P05177).
T3 construct: purchased Promega Corp. V9770
T3 sequence (P05177 1-516): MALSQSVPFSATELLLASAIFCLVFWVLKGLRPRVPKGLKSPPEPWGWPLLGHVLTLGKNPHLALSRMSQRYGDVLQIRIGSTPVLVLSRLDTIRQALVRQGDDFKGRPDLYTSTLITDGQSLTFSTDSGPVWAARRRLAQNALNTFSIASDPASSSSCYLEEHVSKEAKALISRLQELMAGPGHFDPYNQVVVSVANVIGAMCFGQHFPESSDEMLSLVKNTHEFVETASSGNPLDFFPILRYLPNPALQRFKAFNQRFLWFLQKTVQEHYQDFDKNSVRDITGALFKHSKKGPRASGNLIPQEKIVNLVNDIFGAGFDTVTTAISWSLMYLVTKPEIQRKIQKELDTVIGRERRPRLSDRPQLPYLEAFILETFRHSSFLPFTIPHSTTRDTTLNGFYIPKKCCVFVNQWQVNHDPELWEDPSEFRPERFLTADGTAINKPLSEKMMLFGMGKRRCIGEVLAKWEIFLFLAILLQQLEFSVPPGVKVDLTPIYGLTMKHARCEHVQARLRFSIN
Put plainly: CYP inhibition assay (P450-Glo) CYP1A2. In kind it is in vitro ADME. To be noted: P450-Glo CYP1A2 Screening System (CYP enzyme), read-out: CYP inhibition 1A2.
From the text: as §1

In series [5] the test system is 3T3-L1 cells. Put plainly: In vitro efficacy test: lipogenic/adipogenic gene expression during 3T3-L1 adipocyte differentiation. In kind it is cell-based, mouse. Conditions: 10 μM or 50 μM, vs vehicle. The procedure:
3T3-L1 cells (American Type Culture Collection, Manassas, VA, USA) were cultured in DMEM supplemented with 10% FCS and […] P/S in a humidified chamber under 5% atmospheric CO2 at 37 °C. Two days after reaching confluence, cells were further cultured in adipocyte differentiation medium (DMEM/10% FBS, P/S, 0.5 mM IBMX, 1 μg mL^−1 insulin, and 1 μM dexamethasone) (day 0). After 2 days, the medium was changed to adipocyte maintenance medium (DMEM/10% FBS, 1 μg mL^−1 insulin, P/S) (day 2), and the media was changed every 2 days from day 4 to 8. Cells were treated with compound 6 at 10 or 50 μM concentrations throughout adipocyte differentiation (day 0 thru day 8). On day 8, differentiated 3T3-L1 […] were harvested for analysis of gene expression.
Total RNA was extracted from 3T3-L1 cells using Trizol reagent (Invitrogen, Carlsbad, CA, USA), purified using a RNeasy Lipid Tissue Mini kit (Qiagen, Hilden, Germany), and an aliquot (2 µg) of total RNA was reversed transcribed using the RevertAidTM First Strand cDNA Synthesis Kit (Thermo Fisher Scientific, Waltham, MA, USA) according to the manufacturer’s instructions. Real-time PCR was carried out using SYBR Green (Power SYBR Green PCR Master Mix, Thermo Fisher Scientific) with a ViiA™ 7 Real-Time PCR system (Applied Biosystems, Waltham, MA, USA). […]

T2 sequence (P08684 whole entry): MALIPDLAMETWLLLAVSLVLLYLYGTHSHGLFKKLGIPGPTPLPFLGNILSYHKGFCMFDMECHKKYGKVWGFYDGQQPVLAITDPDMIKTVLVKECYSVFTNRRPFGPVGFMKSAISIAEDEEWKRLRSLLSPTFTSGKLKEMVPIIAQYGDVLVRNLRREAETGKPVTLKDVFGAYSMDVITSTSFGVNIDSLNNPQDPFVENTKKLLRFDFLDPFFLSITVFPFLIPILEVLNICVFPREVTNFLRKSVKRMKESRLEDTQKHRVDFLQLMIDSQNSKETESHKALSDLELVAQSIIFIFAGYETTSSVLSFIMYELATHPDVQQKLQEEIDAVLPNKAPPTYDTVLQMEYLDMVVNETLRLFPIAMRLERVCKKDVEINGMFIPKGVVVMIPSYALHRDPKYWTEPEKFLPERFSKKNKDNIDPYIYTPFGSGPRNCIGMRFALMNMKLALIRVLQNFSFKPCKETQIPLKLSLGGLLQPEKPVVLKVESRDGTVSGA
T1 sequence (P33261 whole entry): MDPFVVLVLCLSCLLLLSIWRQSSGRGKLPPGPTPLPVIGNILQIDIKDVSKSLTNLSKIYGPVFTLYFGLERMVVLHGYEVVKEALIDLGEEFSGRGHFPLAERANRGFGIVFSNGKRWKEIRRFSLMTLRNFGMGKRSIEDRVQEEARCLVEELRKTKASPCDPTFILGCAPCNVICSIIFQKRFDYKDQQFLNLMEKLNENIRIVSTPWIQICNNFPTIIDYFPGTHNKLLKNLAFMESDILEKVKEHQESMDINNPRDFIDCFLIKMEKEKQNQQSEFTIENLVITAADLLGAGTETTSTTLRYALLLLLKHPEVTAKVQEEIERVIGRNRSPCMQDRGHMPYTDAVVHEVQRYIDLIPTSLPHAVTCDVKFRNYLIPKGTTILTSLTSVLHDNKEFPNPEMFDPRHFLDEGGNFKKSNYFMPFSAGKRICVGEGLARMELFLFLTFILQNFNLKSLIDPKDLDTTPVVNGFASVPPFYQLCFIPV

`Cc1ccn(-c2cc(Cl)ccc2[C@@H](Oc2ncnc3c(-c4ccc(C[C@H](N)C(=O)O)cc4)csc23)C(F)(F)F)n1.Cl` [Compound 18i, (S)-2-amino-3-(4-(4-((R)-1-(4-chloro-2-(3-methyl-1H-pyrazol-1-yl)phenyl)-2,2,2-trifluoroethoxy)thieno[3,2-d]pyrimidin-7-yl)phenyl)propanoic acid hydrochloride]: the concentration at 0.5 h in series [1] (SD, rat, plasma, 0.5 h, read-out: BBB penetration: plasma level) amounted to 2270 ng/mL. The concentration at 3 h in series [1] (SD, rat, plasma, 3 h, read-out: BBB penetration: plasma level) worked out at 1440 ng/mL. Moreover, the results for the “BBB penetration: plasma level” value in series [1] (0.5 h) and in series [1] (3 h) were “Plasma: 0.5 h: 2266 ng/mL” and 3 h: 1439 ng/mL, respectively. Besides, the “BBB penetration: brain level” value in series [1] (0.5 h) is recorded as “Brain: 0.5 h: BQL ^a”; in series [1] (3 h) it was 3 h: BQL. The “level below the quantification limit (text says plasma)” value in series [1] (time not stated) is under 7 ng/mL. The inhibition at 10 µM was determined as 46.5% in series [2], 45.3% in series [3] and 0.1% in series [4]. The “Expression of lipogenic genes Fasn, Srebp1c and adipogenic transcription factors Pparg, Cebpa” value in series [5] is on record as “decreased expression of key lipogenic genes”.

Usually inhibition stands for the percentage by which the read-out fell short of the control.
